Reference: patent US5168102A, “Endocrine manipulation to improve body composition of poultry” (priority 1990, dated 1992)
Where “and” joins values, the source holds several entries; their conditions need not be identical. Identical values can stand only once.

Tests used:
[1] = 0.25 to 1 ppm in feed throughout entire growth cycle; cited from earlier work
[2] = Example 3: muscle protein turnover (14C-L-tyrosine infusion); type: in vivo, broiler cockerels
Description: At week no. 7 (49 days-of-age), one-half of the birds (8 birds/treatment) were killed for measurement of the abdominal fat pad and liver weights. The muscles were removed, weighed, frozen in liquid N2 and stored at -20° C. until analyzed. At 51 days-of-age, groups of 4 birds per treatment were given a subcutaneous infusion of 4 μCi/Kg of 14C-L-tyrosine emulsified in sesame seed oil and immediately placed in metabolism cages. The expired CO2 was trapped in 15 ml of scrubbing solution (1:2 ethanolamine/methyl cellusolve) and the tubes were changed every 15 minutes for 90 minutes. At 90 minutes, the birds were removed from the metabolism cages and blood was obtained via cardiac puncture. Birds were then sacrificed by cervical dislocation and the muscles were removed, weighed, frozen in liquid N2 and stored at -20° C. until analyzed. Radioactivity in the samples containing trapped CO2 was counted for 10 minutes using a liquid scintillation spectrophotometer. At 54 days-of-age, groups of 4 birds per treatment were killed, the muscles were dissected, weighed, and frozen until analyzed.
The right breast muscle, i.e. BM (Pectoralis major) and right leg muscles, i.e. LM (gastrocnemius and peroneus longus) were dissected out from the birds, weighed and immediately frozen in liquid nitrogen and stored at -20° C. until analyzed for tyrosine content as specific radioactivity of tyrosine. All muscle tissues were analyzed for protein content; only tissues from isotope experiments were analyzed for tyrosine content as specific radioactivity of tyrosine.
FAR of breast muscle and leg muscles were estimated from regression of total muscle protein on age. Total muscle protein was determined by multiplying the muscle weight by protein content. Protein content was determined by the Biuret method. The slope obtained by linear regression was the absolute rate of protein accretion (g/d). The FAR (%/d) was calculated by dividing the absolute accretion rate by the average muscle protein at 51 days-of-age. The FSR (ks) was calculated according to the equation described by Garlick et al., Biochem. J. 136:935 (1973). Protein-bound tyrosine in muscle tissue was separated from free tyrosine according to the procedures of Laurent et al. Biochem. J. 176:419 (1978) with some modification. Approximately 1 g of muscle tissue was homogenized with 5 ml cold distilled water and washed with 15 ml of cold 5% trichloroacetic acid (TCA). The homogenate was then centrifuged for 15 min at 4000×g. The supernatant containing the free tyrosine was poured off and the TCA was extracted with 15 ml of diethyl ether. The supernatant was concentrated to dryness. The dried sample was dissolved in 5 ml of distilled water and stored at 4° C. until analyzed for tyrosine content and the specific radioactivity of tyrosine.
The pellet was extracted with 15 ml of hot 5% TCA, 15 ml of 3:1 ethanol/diethyl ether (v/v) and 20 ml of diethyl ether. The washed pellet was then placed in a 25×150 mm test tube with screw cap and hydrolyzed in 15 ml of 6N hydrochloric acid (HCl) for 16 hours at 125° C. The hydrolysate was concentrated to dryness. The dried sample was dissolved in 5 ml of distilled water and stored at 4° C. until analyzed for tyrosine content and specific radioactivity of tyrosine.
Tyrosine content in free tyrosine (supernatant) and the protein-bound fraction (hydrolysate) was analyzed according to the method of Udenfriend et al, J. Biol. Sci. 196:227 (1952).
The specific radioactivity of tyrosine in the protein-bound fraction (hydrolysate) and in the free tyrosine (supernatant) was analyzed using the method described by Schaefer et al, Can. J. Anim. Sci. 62:1223 (1982). One ml of the samples were added into 10 ml of aquasol and counted for 10 minutes in a liquid scintillation spectrophotometer.

[3] = Example 2: growth and feed efficiency, dietary T3 and ncGH injection; type: in vivo, broiler cockerels (Ross X Arbor Acre)
Description: Forty-eight 3-week-old broiler cockerels (Ross X Arbor Acre) were randomly divided into four treatment groups that contained three pens of four birds. The birds were housed in a controlled-environment room under a 20 hour light/4 hour dark cycle with feed and water provided ad libitum.
The preparation of ncGH used in this study was from the same lot used in Example 1.
Body weights and feed consumption was determined at weekly intervals although the ADG, ADFC and FTG ratio was determined over the 21 day period. […] At the conclusion of the study (6 weeks-of-age), birds were killed and the abdominal fat removed and weighed. The liver and abdominal fat were returned to the carcass which was frozen for proximate analysis as described in […]

receptor = details: cited from earlier work

N[C@@H](Cc1cc(I)c(Oc2ccc(O)c(I)c2)c(I)c1)C(=O)O [T3, 3,3',5-triiodo-L-thyronine]
body weight gain, feed efficiency / growth performance [1]: reduced body weight gain and feed efficiency
overall protein turnover rate of breast muscle ([2]; 0.25 ppm): did not differ from that of control birds
protein accretion in breast and leg muscle, increase ([2]; 0.25 ppm): 45-88%
FAR, Leg muscles ([2]; 0.25 ppm of feed): 9.3 %/d
FAR, Pectoralis major (breast muscle) ([2]; 0.25 ppm of feed): 4.9 %/d
FRD (fractional degradation rate), Leg muscles ([2]; 0.25 ppm of feed): 13.6 %/d
FRD (fractional degradation rate), Pectoralis major ([2]; 0.25 ppm of feed): 12.3 %/d
FSR, Leg muscles ([2]; 0.25 ppm of feed): 22.0 ± 2.1 %/d
FSR, Pectoralis major ([2]; 0.25 ppm of feed): 17.2 ± 1.3 %/d
FAR of leg muscle, increase ([2]; 0.25 ppm, vs control group): 45%
FAR of pectoralis major (breast muscle), increase ([2]; 0.25 ppm, vs control group): 88%
effect on protein synthesis rate in breast muscle ([2]; 0.25 to 1 ppm): only a slight effect upon protein synthesis rate in breast muscle
FAR, Leg muscles ([2]; 1.0 ppm of feed): -2.0 %/d
FAR, Pectoralis major (breast muscle) ([2]; 1.0 ppm of feed): -4.5 %/d
FRD (fractional degradation rate), Leg muscles ([2]; 1.0 ppm of feed): 24.1 %/d
FRD (fractional degradation rate), Pectoralis major ([2]; 1.0 ppm of feed): 22.7 %/d
FSR, Leg muscles ([2]; 1.0 ppm of feed): 22.1 ± 1.9 %/d
FSR, Pectoralis major ([2]; 1.0 ppm of feed): 18.2 ± 1.7 %/d
fractional degradation rate of breast muscle, increase ([2]; 4 ppm): 116%
FSR of protein in breast muscle, increase ([2]; 4.0 ppm (p<0.05)): 55.7% and 56%
FAR, Leg muscles ([2]; 4.0 ppm of feed): 5.0 %/d
FAR, Pectoralis major (breast muscle) ([2]; 4.0 ppm of feed): -3.8 %/d
FRD (fractional degradation rate), Leg muscles ([2]; 4.0 ppm of feed): 18.4 %/d
FRD (fractional degradation rate), Pectoralis major ([2]; 4.0 ppm of feed): 28.1 %/d
FSR, Leg muscles ([2]; 4.0 ppm of feed): 23.4 ± 0.8 %/d
FSR, Pectoralis major ([2]; 4.0 ppm of feed): 24.3 ± 1.4 %/d
accretion of certain muscle protein (particularly breast muscle) ([2]; plasma thyroid hormone bioactivity 360-1200% of normal): decreased
ADFC ([3]; 1 ppm T3 and/or ncGH 100 μg/kg/day, 21 days): 117.9 ± 0.8 g/bird/day
ADG ([3]; 1 ppm T3 in feed and/or ncGH 100 μg/kg/day i.m., 3 to 6 weeks, mean ±SEM of 3 pens): 52.6 ± 1.0 g/bird/day
effect on ADG, ADFC and FTG ratio ([3]; 21 days): not affected
metabolic activity of thyroid hormones (receptor): most active compounds of formula I
